From patent EP2647628A1, “Substituted tricyclic compounds with activity towards ep1 receptors” (Almirall, S.A., priority 2012, dated 2013)

Biological target: T1, human EP1 receptor (Homo sapiens, UniProt P34995)
T1 construct: expressed in transfected cells; host or cells: HEK-293 cell membranes
T1 sequence (P34995 1-402): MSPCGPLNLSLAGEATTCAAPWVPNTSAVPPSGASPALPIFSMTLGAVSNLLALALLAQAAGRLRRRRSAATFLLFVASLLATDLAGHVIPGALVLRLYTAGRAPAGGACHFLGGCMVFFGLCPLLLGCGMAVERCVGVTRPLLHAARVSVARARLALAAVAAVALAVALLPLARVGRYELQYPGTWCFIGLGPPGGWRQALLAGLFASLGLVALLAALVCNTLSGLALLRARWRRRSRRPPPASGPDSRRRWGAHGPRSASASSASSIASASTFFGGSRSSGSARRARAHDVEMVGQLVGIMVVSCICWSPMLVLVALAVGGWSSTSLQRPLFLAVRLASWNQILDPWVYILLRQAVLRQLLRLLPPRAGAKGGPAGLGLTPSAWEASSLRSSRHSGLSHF
Assay: Human EP1 receptor radioligand binding assay
Details: [3H]-PGE2 (10 nM), transfected HEK-293 cell membranes, pH 6.0, 25 °C, 60 minutes; Ki by Cheng-Prusoff equation
Experimental: To investigate binding properties of EP1 receptor ligands to human EP1 receptor, transfected HEK-293 cell membranes and [3H]-PGE2 (Perkin Elmer) were used. In 96-well plates the assay was carried out with a total reaction volume of 250 µl, containing 25 µl of membrane suspension (30 µg protein/well), 25 µl of [3H]-PGE2 (10 nM) in either absence or presence of 25 µl of either buffer or PGE2 (10 µM) for total and non-specific binding, respectively. Binding buffer contained 10 mM MES, 1 mM MgCl2 and 1 mM EDTA at pH 6.0. Plates were incubated at 25 °C for 60 minutes. After the incubation period, 200 µl of incubate were transferred to MultiScreen HTS, FB plates (Millipore), filtered and plates were washed 6 times with ice-cold 10 mM MES, 1 mM MgCl2 and 1 mM EDTA at pH 6.0. Filters were dried and counted in a MicroBeta scintillation counter (Perkin-Elmer) using EcoScint liquid scintillation cocktail.
Percentage inhibition was calculated relating compounds activity to the 0% inhibition of the wells incubated with 10 nM [3H]-PGE2 alone (total binding) and 100% inhibition of the wells incubated with 10 nM [3H]-PGE2 plus 10 µM PGE2 (non-specific binding). Competition binding curves were carried out by assaying 6 different concentrations with duplicated points. The inhibition constant (Ki) of each compound was calculated by the Cheng-Prusoff equation: Ki = IC50 /(1+[L]/KD) [formula] where IC50 is the concentration of compound that displaces the binding of radioligand by 50%, [L] is the free concentration of radioligand and KD is the dissociation constant of each radioligand. IC50 values were obtained by fitting the data with non-linear regression using XIFit software (IDBS).

| SMILES | Ki [nM] |
| --- | --- |
| CCCc1ccc2c(c1)[C@@H]1CCC[C@@H]1[C@H](c1ccc(C(=O)O)cc1)N2 [EXAMPLE 12, 4-((3aS, 4R, 9bR)-2,3,3a, 4,5,9b-hexahydro-8-propyl-1H-cyclopenta[c]quinolin-4-yl)benzoic acid] | > 500 |
| N#Cc1ccc2c(c1)[C@@H]1CCC[C@@H]1[C@H](c1ccc(C(=O)O)cc1)N2 [EXAMPLE 19, 4-((3aS,4R,9bR)-8-cyano-2,3,3a,4,5,9b-hexahydro-1H-cyclopenta[c]quinolin-4-yl)benzoic acid] | > 500 |
| Cc1cc2c(cc1Cl)N[C@@H](c1ccc(C(=O)O)cc1)[C@H]1CCC[C@@H]21 [EXAMPLE 29, 4-((3aS,4R,9bR)-7-chloro-2,3,3a,4,5,9b-hexahydro-8-methyl-1H-cyclopenta[c]quinolin-4-yl)benzoic acid] | > 500 |
| Cc1ccc2c(c1)[C@@H]1CCC[C@@H]1[C@H](c1ccc(C(=O)O)cc1)N2C [EXAMPLE 30, 4-((3aS,4R,9bR)-2,3,3a,4,5,9b-hexahydro-5,8-dimethyl-1H-cyclopenta[c]quinolin-4-yl)benzoic acid] | > 500 |
| Cc1ccc2c(c1)[C@@H]1CCC[C@@H]1[C@H](c1ccc(C(=O)O)c(C)c1)N2 [EXAMPLE 36, 4-((3aS, 4R, 9bR)-2,3,3a, 4,5,9b-hexahydro-8-methyl-1H-cyclopenta[c]quinolin-4-yl)-2-methylbenzoic acid] | > 500 |
| CCc1cc(C(=O)O)ccc1[C@H]1Nc2ccc(OC)cc2[C@@H]2CCC[C@H]12 [EXAMPLE 55, 3-ethyl-4-((3aS,4S,9bR)-2,3,3a,4,5,9b-hexahydro-8-methoxy-1H-cyclopenta[c]quinolin-4-yl)benzoic acid] | 100 to 500 |
| Cc1ccc2c(c1)[C@@H]1CCC[C@@H]1[C@H](c1cc(C(=O)O)nn1C)N2 [EXAMPLE 62, 5-((3aS,4R,9bR)-2,3,3a,4,5,9b-hexahydro-8-methyl-1H-cyclopenta[c]quinolin-4-yl)-1-methyl-1H-pyrazole-3-carboxylic acid] | > 500 |
| COc1ccc2c(c1)[C@]1(C)CCC[C@@H]1[C@H](c1ccc(C(=O)O)cc1)N2 [EXAMPLE 69, 4-((3aS,4R,9bR)-2,3,3a,4,5,9b-hexahydro-8-methoxy-9b-methyl-1H-cyclopenta[c]quinolin-4-yl)benzoic acid] | 100 to 500 |
| Cc1ccc2c(c1)[C@]1(C)CCC[C@@H]1[C@H](c1ccc(C(=O)O)cc1C)N2 [EXAMPLE 75, 4-((3aS, 4R, 9bR)-2,3,3a, 4,5,9b-hexahydro-8,9b-dimethyl-1H-cyclopenta[c]quinolin-4-yl)-3-methylbenzoic acid] | 100 to 500 |

Next, values leading:

| Ki [nM] | SMILES |
| --- | --- |
| 100 to 500 | Cc1ccc2c(c1)[C@@H]1CCC[C@@H]1[C@H](c1ccc(C(=O)O)cc1)N2 (racemic) [EXAMPLE 04, 4-((3aS,4R,9bR)-2,3,3a,4,5,9b-hexahydro-8-methyl-1H-cyclopenta[c]quinolin-4-yl)benzoic acid] |
| < 100 | COc1ccc2c(c1)[C@@H]1CCC[C@@H]1[C@H](c1ccc(C(=O)O)cc1)N2 (racemic) [EXAMPLE 07, 4-((3aS,4R,9bR)-2,3,3a,4,5,9b-hexahydro-8-methoxy-1H-cyclopenta[c]quinolin-4-yl)benzoic acid] |
| < 100 | O=C(O)c1ccc([C@@H]2Nc3ccc(Cl)cc3[C@@H]3CCC[C@@H]32)cc1 (single isomer, unassigned) [EXAMPLE 06a] |
| < 100 | Cc1ccc2c(c1)[C@@H]1CCC[C@@H]1[C@H](c1ccc(C(=O)O)cc1C)N2 (single isomer, unassigned) [EXAMPLE 37a] |
| 100 to 500 | O=C(O)c1ccc([C@@H]2Nc3ccc(Br)cc3[C@@H]3CCC[C@@H]32)cc1 [EXAMPLE 02, 4-((3aS,4R,9bR)-8-bromo-2,3,3a,4,5,9b-hexahydro-1H cyclopenta[c]quinolin-4-yl)benzoic acid] |
| 100 to 500 | CC(C)c1ccc2c(c1)[C@@H]1CCC[C@@H]1[C@H](c1ccc(C(=O)O)cc1)N2 [EXAMPLE 18, 4-((3aS,4R,9bR)-2,3,3a,4,5,9b-hexahydro-8-isopropyl-1H-cyclopenta[c]quinolin-4-yl)benzoic acid] |
| 100 to 500 | Cc1cc(C(=O)O)ccc1[C@@H]1Nc2ccc(C3CC3)cc2[C@@H]2CCC[C@@H]21 [EXAMPLE 43, 4-((3aS, 4R, 9bR)-8-cyclopropyl-2,3,3a, 4,5,9b-hexahydro-1H cyclopenta[c]quinolin-4-yl)-3-methylbenzoic acid] |
| 100 to 500 | Cc1ccc2c(c1)[C@@H]1CCC[C@@H]1[C@H](c1ccc(C(=O)O)cc1Cl)N2 [EXAMPLE 47, 3-chloro-4-((3aS, 4R, 9bR)-2,3,3a, 4,5,9b-hexahydro-8-methyl-1H-cyclopenta[c]quinolin-4-yl)benzoic acid] |
| < 100 | Cc1ccc2c(c1)[C@@H]1CCC[C@@H]1[C@@H](c1c(C)cc(C(=O)O)cc1C)N2 [EXAMPLE 56, 4-((3aS,4S,9bR)-2,3,3a,4,5,9b-hexahydro-8-methyl-1H cyclopenta[c]quinolin-4-yl)-3,5-dimethylbenzoic acid] |
| < 100 | COc1ccc2c(c1)[C@@H]1CCC[C@@H]1[C@@H](c1c(C)cc(C(=O)O)cc1C)N2 [EXAMPLE 57, 4-((3aS,4S,9bR)-2,3,3a,4,5,9b-hexahydro-8-methoxy-1H-cyclopenta[c]quinolin-4-yl)-3,5-dimethylbenzoic acid] |
